The source of these data is BindingDB's records for doi:10.1016/j.bmcl.2010.11.084 (Merck Frosst Centre For Therapeutic Research, 2011).

The structures appear in SMILES notation.

A short description of the experiment: Antagonist activity at CRTH2 in human eosinophil assessed as effect of cellular shape change by EOS assay.
As to `C[C@@H](C(=O)N(C)[C@@H]1CCc2c(CC(=O)O)c3cccnc3n2C1)c1ccc(F)cc1` [2-((R)-8-((R)-2-(4-fluorophenyl)-N-methylpropanamido)-6,7,8,9-tetrahydropyrido[3,2-b]indolizin-5-yl)acetic acid], the IC50 turned out to be 1.2 nM.
`CN([C@@H]1CCc2c(CC(=O)O)c3ccc(-c4ccc(F)cc4)nc3n2C1)S(=O)(=O)c1ccc(F)cc1` [(R)-2-(8-(4-fluoro-N-methylphenylsulfonamido)-2-(4-fluorophenyl)-6,7,8,9-tetrahydropyrido[3,2-b]indolizin-5-yl)acetic acid]: the IC50 was 16 nM.
With `CN(C(=O)C1(c2ccc(F)cc2)CC1(C)C)[C@@H]1CCc2c(CC(=O)O)c3cccnc3n2C1` (stereo partly drawn) [2-((8R)-8-(1-(4-fluorophenyl)-N,2,2-trimethylcyclopropanecarboxamido)-6,7,8,9-tetrahydropyrido[3,2-b]indolizin-5-yl)acetic acid] the figure was 2.4 nM.
Next, `CN(C(=O)C(C)(C)c1ccc(F)cc1)[C@@H]1CCc2c(CC(=O)O)c3cccnc3n2C1` [(R)-2-(8-(2-(4-fluorophenyl)-N,2-dimethylpropanamido)-6,7,8,9-tetrahydropyrido[3,2-b]indolizin-5-yl)acetic acid]: 2.3 nM; `CN(C(=O)C1(c2ccc(F)cc2)CCCC1)[C@@H]1CCc2c(CC(=O)O)c3cccnc3n2C1` [(R)-2-(8-(1-(4-fluorophenyl)-N-methylcyclopentanecarboxamido)-6,7,8,9-tetrahydropyrido[3,2-b]indolizin-5-yl)acetic acid]: 3.4 nM; `CN(C(=O)C1(c2ccc(F)cc2)CCC1)[C@@H]1CCc2c(CC(=O)O)c3cccnc3n2C1` [(R)-2-(8-(1-(4-fluorophenyl)-N-methylcyclobutanecarboxamido)-6,7,8,9-tetrahydropyrido[3,2-b]indolizin-5-yl)acetic acid]: 1.2 nM.
Next, `CN([C@@H]1CCc2c(CC(=O)O)c3cccnc3n2C1)S(=O)(=O)c1ccc(F)cc1` [(R)-2-(8-(4-fluoro-N-methylphenylsulfonamido)-6,7,8,9-tetrahydropyrido[3,2-b]indolizin-5-yl)acetic acid]: 7 nM.
On to `CN(C(=O)C1(c2ccc(F)cc2)CC1)[C@@H]1CCc2c(CC(=O)O)c3cccnc3n2C1` [(R)-2-(8-(1-(4-fluorophenyl)-N-methylcyclopropanecarboxamido)-6,7,8,9-tetrahydropyrido[3,2-b]indolizin-5-yl)acetic acid], for which the IC50 amounted to 3.1 nM.

One may read the IC50 as the concentration that inhibits the measured activity by half.
